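Compound exposure: 48 hours, 5 concentrations, 96-well plates. GI50 is the concentration that inhibits growth by half.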 The source made the active and inactive calls. Rule as the data show it: active = GI50 up to about 1.1 µM and inactive = higher.
Columns and labels:
Experiment in all cases: NCI tumour cell line growth inhibition, 48 h
HCT-116 = system: HCT-116
M14 = system: M14
OVCAR-5 = system: OVCAR-5
TK-10 = system: TK-10
EKVX = system: EKVX
SF-268 = system: SF-268
SNB-19 = system: SNB-19
NCI/ADR-RES = system: NCI/ADR-RES
MDA-N = system: MDA-N
MCF7 = system: MCF7
SR = system: SR
MOLT-4 = system: MOLT-4
ACHN = system: ACHN
CCRF-CEM = system: CCRF-CEM
OVCAR-8 = system: OVCAR-8
HT-29 = system: HT-29
A549 = system: A549
UACC-62 = system: UACC-62
786-0 = system: 786-0
LOX IMVI = system: LOX IMVI
HOP-92 = system: HOP-92
NCI-H460 = system: NCI-H460
RPMI-8226 = system: RPMI-8226
SF-295 = system: SF-295
SK-MEL-28 = system: SK-MEL-28
HL-60 = system: HL-60
NCI-H226 = system: NCI-H226
SW-620 = system: SW-620
Malme-3M = system: Malme-3M
SF-539 = system: SF-539
RXF 393 = system: RXF 393
HCC 2998 = system: HCC 2998
MDA-MB-231 = system: MDA-MB-231
K562 = system: K562
UO-31 = system: UO-31
CAKI-1 = system: CAKI-1
BT-549 = system: BT-549
HCT-15 = system: HCT-15
SNB-75 = system: SNB-75
Hs-578T = system: Hs-578T
MDA-MB-435 = system: MDA-MB-435
SK-OV-3 = system: SK-OV-3
SK-MEL-2 = system: SK-MEL-2
HOP-62 = system: HOP-62
A498 = system: A498
KM12 = system: KM12
NCI-H522 = system: NCI-H522
NCI-H23 = system: NCI-H23
U-251 = system: U-251
UACC-257 = system: UACC-257
PC-3 = system: PC-3
OVCAR-3 = system: OVCAR-3
DU-145 = system: DU-145
SN12C = system: SN12C
T47D = system: T47D
COLO 205 = system: COLO 205
IGROV-1 = system: IGROV-1
SK-MEL-5 = system: SK-MEL-5
OVCAR-4 = system: OVCAR-4

Cn1c([C@H](C#N)c2ncccc2[N+](=O)[O-])nc2ccccc21
GI50 (HCT-116): > 100 µM (inactive) | GI50 (M14): > 100 µM (inactive) | GI50 (OVCAR-5): > 100 µM (inactive) | GI50 (TK-10): > 100 µM (inactive) | GI50 (EKVX): 56 µM (inactive) | GI50 (SF-268): 36 µM (inactive) | GI50 (SNB-19): 50 µM (inactive) | GI50 (NCI/ADR-RES): 78.2 µM (inactive) | GI50 (MDA-N): > 100 µM (inactive) | GI50 (MCF7): 21 µM (inactive) | GI50 (SR): > 100 µM (inactive) | GI50 (MOLT-4): > 100 µM (inactive) | GI50 (ACHN): > 100 µM (inactive) | GI50 (CCRF-CEM): 0.632 µM (active) | GI50 (OVCAR-8): 49.3 µM (inactive) | GI50 (HT-29): > 100 µM (inactive) | GI50 (A549): 83.9 µM (inactive) | GI50 (UACC-62): > 100 µM (inactive) | GI50 (786-0): 31.8 µM (inactive) | GI50 (LOX IMVI): > 100 µM (inactive) | GI50 (HOP-92): 89.1 µM (inactive) | GI50 (NCI-H460): 76.4 µM (inactive) | GI50 (RPMI-8226): > 100 µM (inactive) | GI50 (SF-295): 28.4 µM (inactive) | GI50 (SK-MEL-28): > 100 µM (inactive) | GI50 (HL-60): > 100 µM (inactive) | GI50 (NCI-H226): > 100 µM (inactive) | GI50 (SW-620): > 100 µM (inactive) | GI50 (Malme-3M): 83.2 µM (inactive) | GI50 (SF-539): 31.1 µM (inactive) | GI50 (RXF 393): 19.5 µM (inactive) | GI50 (HCC 2998): > 100 µM (inactive) | GI50 (MDA-MB-231): > 100 µM (inactive) | GI50 (K562): > 100 µM (inactive) | GI50 (UO-31): > 100 µM (inactive) | GI50 (CAKI-1): > 100 µM (inactive) | GI50 (BT-549): > 100 µM (inactive) | GI50 (HCT-15): > 100 µM | GI50 (SNB-75): 28.2 µM (inactive) | GI50 (Hs-578T): 29.9 µM (inactive) | GI50 (MDA-MB-435): > 100 µM (inactive) | GI50 (SK-OV-3): 32.8 µM (inactive) | GI50 (SK-MEL-2): 40.6 µM (inactive) | GI50 (HOP-62): 24.5 µM (inactive) | GI50 (A498): > 100 µM (inactive) | GI50 (KM12): > 100 µM (inactive) | GI50 (NCI-H522): 14.4 µM (inactive) | GI50 (NCI-H23): 59 µM (inactive) | GI50 (U-251): 34.8 µM (inactive) | GI50 (UACC-257): > 100 µM (inactive) | GI50 (PC-3): 86.1 µM (inactive) | GI50 (OVCAR-3): > 100 µM (inactive)

C=C(C)[C@@]1(O)CCC[C@H]1NC(=O)OC(C)(C)C
GI50 (HCT-116): > 100 µM (inactive) | GI50 (M14): > 100 µM (inactive) | GI50 (OVCAR-5): > 100 µM (inactive) | GI50 (TK-10): > 100 µM (inactive) | GI50 (EKVX): > 100 µM (inactive) | GI50 (SF-268): > 100 µM (inactive) | GI50 (SNB-19): > 100 µM (inactive) | GI50 (DU-145): > 100 µM (inactive) | GI50 (SN12C): > 100 µM (inactive) | GI50 (NCI/ADR-RES): > 100 µM (inactive) | GI50 (MDA-N): > 100 µM (inactive) | GI50 (T47D): > 100 µM (inactive) | GI50 (MCF7): > 100 µM (inactive) | GI50 (ACHN): > 100 µM (inactive) | GI50 (CCRF-CEM): 84.9 µM (inactive) | GI50 (OVCAR-8): > 100 µM (inactive) | GI50 (HT-29): > 100 µM (inactive) | GI50 (A549): > 100 µM (inactive) | GI50 (786-0): > 100 µM (inactive) | GI50 (LOX IMVI): > 100 µM (inactive) | GI50 (HOP-92): > 100 µM (inactive) | GI50 (NCI-H460): > 100 µM (inactive) | GI50 (SF-295): > 100 µM (inactive) | GI50 (SK-MEL-28): > 100 µM (inactive) | GI50 (NCI-H226): > 100 µM (inactive) | GI50 (COLO 205): > 100 µM (inactive) | GI50 (SW-620): > 100 µM (inactive) | GI50 (Malme-3M): > 100 µM (inactive) | GI50 (RXF 393): > 100 µM (inactive) | GI50 (HCC 2998): > 100 µM (inactive) | GI50 (IGROV-1): > 100 µM (inactive) | GI50 (MDA-MB-231): > 100 µM (inactive) | GI50 (UO-31): > 100 µM (inactive) | GI50 (CAKI-1): > 100 µM (inactive) | GI50 (BT-549): > 100 µM (inactive) | GI50 (HCT-15): > 100 µM | GI50 (SNB-75): > 100 µM (inactive) | GI50 (SK-MEL-5): > 100 µM (inactive) | GI50 (MDA-MB-435): > 100 µM (inactive) | GI50 (SK-OV-3): > 100 µM (inactive) | GI50 (SK-MEL-2): > 100 µM (inactive) | GI50 (HOP-62): > 100 µM (inactive) | GI50 (OVCAR-4): > 100 µM (inactive) | GI50 (A498): > 100 µM (inactive) | GI50 (KM12): > 100 µM (inactive) | GI50 (NCI-H522): > 100 µM (inactive) | GI50 (NCI-H23): > 100 µM (inactive) | GI50 (U-251): > 100 µM (inactive) | GI50 (UACC-257): > 100 µM (inactive) | GI50 (PC-3): > 100 µM (inactive) | GI50 (OVCAR-3): > 100 µM (inactive)

Source: ChEMBL document CHEMBL1201862, “PubChem BioAssay data set” (2004)
